Measured values published in patent US20130296346A1, “DIPHENYL-AMINE DERIVATIVES: USES, PROCESS OF SYNTHESIS AND PHARMACEUTICAL COMPOSITIONS” (Faes Farma, S.A., priority 2010, published 2013).

Tests used:
[1] = tested on: colorectal cancer cells from patients with Kras mutation; assay: Mutated Kras colon cancer orthotopic animal model; assay type: in vivo, mice; conditions: compared with vehicle control, FIG. 4A
Experimental: Using an animal model based on colorectal cancer cells from patients with Kras mutation, implanted on mice in the colon area (Yao, M. Cyclooxygenase-2 selective inhibition with NS-398 suppresses proliferation and invasiveness and delays liver metastasis in colorectal cancer. Br. J. Cancer, 2004 Feb. 9; 90(3):712-9), the effects of Compound 3 were tested.

TNFr = assay: TNF-R transfectant, NF-kB reporter gene (secreted phosphatase); assay type: cell-based
Description: (§1) The secreted phosphatase sPase was used as reporter for its ability to process the luminiscent or colorimetric substrates from the culture based in the hydrolysis of substrates chemically similar to nitrophenol phosphate. Five generation of transfectants were developed as described: • 1. IL-4R. Chains of Type II IL-4-r, which is the common one within non-haematopoietic cells were transfected, as well as STAT6 which the key molecule in the nuclear signalling route by IL-4-r, and finally a reporter gene to measure the response to STAT6 was introduced. Endogenously, cells had Janus Associated Kinase 1 (JAK1) which was previously known to be associated with STAT6 via p62/aPKC. • 2. IL-6R. Chains of IL-6R were transfected and a reporter gene able to measure the response to STAT3 was introduced. As it is well known, STAT3 is a transductional molecule and a nuclear factor physiologically produced in the standard responses IL-6/IL-6R. • 3. TNF-R. In this case, a reporter gene able to measure the response to NF-kB was introduced, as this is the transductional molecule and the nuclear factor physiologically produced in response to TNF-alpha. […] LPS-Receptor complex represented by TLR4/MD2/CD14. Reporter genes with elements of response to NFkB were used as in the previous case, but the selectivity was achieved by the co-transfection of components of the LPS-R complex. The LPS is captured from the serum through the union to one plasma protein known as LBP, which transfers the LPS to the membrane protein CD14. The LBP inclusion accounts for an increase of 1000-fold the sensitivity versus media or cultures LBP-frees. The molecule CD14 is not an LPS-receptor but a module of the receptor complex which captures LBP, allowing the transference of LPS in the cellular surface to MD2. CD14 has not a cytoplasmic tail and it is not able to be a signal transducer but it substantially increases the sensitivity of the system. In a similar way, MD2 is not a signal transducer but the combination of CD14 and MD2 allows the increase of the sensitivity by 10000-fold. • 5. IL-1R. Reporter genes with elements of response to NFkB were used as in the previous case, but the selectivity was achieved by the expression of components belonging to the receptor complex IL-1R. IL-1R belongs to a receptors superfamily which uses TIR transduction domains (Toll-like IL-1R). It is known that the IL-1R route activates mitogen-activated protein kinases (MAPK) of JNK type which in turn generate nuclear factors transcriptionally active as AP-1. The reporter gene includes NFkB and AP-1 sites chained in order to simulate the physiological situation.

resting human PBLs = assay: Apoptosis of resting human PBLs; assay type: cell-based
Experimental: To isolate normal peripheral blood lymphocytes (PBLs), mononuclear cells were obtained from fresh human peripheral blood from healthy volunteers by centrifugation on Ficoll-Hypaque density gradients, washed with phosphate-buffered saline (PBS), and resuspended in RPMI-1640 medium containing 10% (v/v) heat-inactivated FBS, 2 mM L-glutamine, 100 U/ml penicillin, and 100 μg/ml streptomycin as described (Cabaner et al. Br. J. Pharmacol 127:813-825.1999). Monocytes were depleted by culture dish adherence after overnight incubation. Nonadherent cells (lymphocytes) were washed with PBS and collected. PBL preparations were typically 70-75% CD3^+, 24-29% CD 19^+, and less than 0.4% CD 14^+.

IL4r = assay: IL-4R transfectant, STAT6 reporter gene (secreted phosphatase); assay type: cell-based
Description: as §1

IL6r = assay: IL-6R transfectant, STAT3 reporter gene (secreted phosphatase); assay type: cell-based
Description: as §1

[2] = tested on: haematological cancer cell lines; assay: Apoptosis induction in haematological cancer cell lines; assay type: cell-based
[3] = Cytotoxicity for human non-tumoral cells, XTT; assay type: cell-based; conditions: Fibroblasts
Experimental: (§2) The cytotoxicity of the compounds for human non-tumoral cells was studied in fibroblasts, HUVEC cells and resting PBLs (Peripheral Blood lymphocytes).
(§3) Distinct amounts of exponentially growing cells were seeded in 96-well flat-bottomed microtiter plates in a final volume of 100 μl were seeded in 96-well flat-bottomed microtiter plates, and incubated at 37° C. in a humidified atmosphere of 5% CO2/95% air for 24 h to allow the cells attach to the plates. Then, cells were incubated with different concentrations of the assayed compound at 37° C. under the 5% CO2/95% air atmosphere for 72 h. Cell proliferation was quantified using the XTT cell proliferation kit (Roche Molecular Biochemicals, Mannheim, Germany) following the manufacturer's instructions. Briefly, a freshly prepared mixture solution (50 μl) of XTT labelling reagent and PMS (N-methyldibenzopyrazine methyl sulfate) electron coupling reagent was added to each well. The resulting mixtures were further incubated for 4 h in a humidified atmosphere (37° C., 5% CO2), and the absorbance of the formazan product generated was measured with a microtiter plate reader at a test wavelength of 490 nm and a reference wavelength of 655 nm. The IC50 (50% inhibitory concentration) was then calculated as the drug concentration causing a 50% inhibition of cell proliferation. Data are shown as mean values of four independent experiments each performed in triplicate.

[4] = Cytotoxicity for human non-tumoral cells, XTT; assay type: cell-based; conditions: HUVEC cells (primary, from human cords)
Experimental: as §2
HUVEC cells were obtained by treating human cords with collagenase type I, […] in Hank's medium incubating 20 minutes at 37° C. Cells were collected afterwards and cultivated in medium M199 with supplements of 20% FBS, 1% P/S and 25 mg/500 ml of medium ECGF, Cells were grown on a 0.2% gelatin matrix.
as §3

NCI-H460 = assay: In vitro cytotoxicity, SRB method; assay type: cell-based; conditions: Homo sapiens, NCI-H460 lung, 72 hours
Experimental: (§4) SRB method was followed (Wieland, V., et al. Sulforhodamine B Assay and Chemosensitivity. Chemosensitivity, volume 1, In Vitro Assays. Methods in Molecular Medicine. Edited by Rosalyn D. Blumenthal. Humana Press, Totowa, N.J., 2005).
(§5) Cells were seeded in microplates of 96 wells. In each well, according to the cell type, specific number of cells were seeded in 200 microliters. In these conditions, cells were cultured for 3 days, with the aim of reaching their exponential phase of growing to assay the product cytotoxicity. The product concentrations were prepared just the day of treatments, after thawing the stock solutions (10 mM). After harvesting the microplate with the seeded cells for 3 days, the culture medium was discarded and replaced by 150 μl of fresh medium in each well. This was followed by the addition of 50 μl of the corresponding product dilution so as the final concentration in the final volume of 200 microliters in each well was the one scheduled. The products, at the assayed concentrations, were in contact with the cell growing monolayer for 72 hours and incubated at 37° C., 5% CO2. Finally, cells were growth arrested adding […] of cold TCA (Trichloroacetic acid) 50%, (final concentration of 10% in the well). Microplate was then maintained at 4° C. for over 60 min to fix cellular proteins till initiation of washing and staining with SRB.
(§6) Cell viability (%)=(Cell population of the treated well/Maximum cell population of the Standard curve)×100.
(§7) Mean viability values for each concentration were calculated from the values obtained for each well in which that concentration was assayed.

HCT116 = assay: In vitro cytotoxicity, SRB method; assay type: cell-based; conditions: Homo sapiens, HCT-116, HCT116 colon cancer, 72 hours
Experimental: as §4, §5, §6, §7

Malm-3M = assay: In vitro cytotoxicity, SRB method; assay type: cell-based; conditions: Malm-3M melanoma, 72 hours
Experimental: as §4, §5, §6, §7

HepG2 = assay: In vitro cytotoxicity, SRB method; assay type: cell-based; conditions: Homo sapiens, HepG2 hepatoma, 72 hours
Experimental: as §4, §5, §6, §7

SF268 = assay: In vitro cytotoxicity, SRB method; assay type: cell-based; conditions: Homo sapiens, SF-268, SF268 glioblastoma, 72 hours
Experimental: as §4, §5, §6, §7

B16-F1 = assay: In vitro cytotoxicity, SRB method; assay type: cell-based; conditions: Mus musculus, B16-F1 melanoma, 72 hours
Experimental: as §4, §5, §6, §7

SW260 = assay: In vitro cytotoxicity, SRB method; assay type: cell-based; conditions: SW260 colon cancer, 72 hours
Experimental: as §4, §5, §6, §7

TNF-α = assay: Murine endotoxemia (LPS i.p.), blood serum TNF-α; assay type: in vivo, mice; conditions: orally 100 mg/kg; 90 min after LPS 1 mg/kg i.p.
Experimental: MATERIAL AND METHODS: Male CD1 mice, weighing between 30 and 35 g and housed under controlled standard conditions, were used. These animal fasted (for 14-16 hours; 12 per group; 6 per cage≅500 cm^2), with a nutritional solution made of Saccharose (8%) and NaCl (0.2%), ad libitum. Oral test treatments were given in suspensions (vehicle: Tween 80 0.1%—NaCl 0.9%), in a 10 ml/kg volume ratio. One hour later, murine endotoxemia was induced by intraperitoneal injection of Lipopolysaccharides from Escherichia coli serotype 055:B5 (Sigma L-2880), at 1 mg/kg dose and in a 10 ml/kg volume ratio, dissolved in sterile saline. Ninety minutes after LPS injection (i.p.), under Isoflurane anaesthesia, 0.5-0.8 ml of blood was extracted by cardiac punction; the blood sample was centrifuged (6000 rpm; 10 minutes; 4° C.) and 2 serum samples were taken and kept frozen at −70° C. until serum TNF-α concentrations were measured (EIA: Mouse TNF/TNF SF1A Quantikine from R&D Systems).

IL6 = assay: Blood serum IL6 in mice treated with parathyroid hormone; assay type: in vivo; conditions: orally 25 mg/kg; pTH-rp treated mice
Experimental: MATERIAL AND METHODS: Male CD1 mice, between 5 and 7 week and housed under controlled standard conditions, were used. These animal fasted (for 14-16 hours; 12 per group; 6 per cage≅1100 cm^2), with solid and liquid food ad libitum. During 5 days, the animals were treated with 8 i.p. administration of pTH-rp (1-34, human) 15 microgram/0.1 ml/injection
Oral test treatments were given in suspensions (vehicle: Tween 80 0.1%—NaCl 0.9%), in a 10 ml/kg volume ratio., one hour later of pTH injection.
Two hours after last pTH administration and under Isoflurane anaesthesia, 0.5-0.8 ml of blood was extracted by cardiac punction; the blood sample was centrifuged (6000 rpm; 10 minutes; 4° C.) and 2 serum samples were taken and kept frozen at −70° C. until serum IL6 concentrations were measured (EIA: reference number 555240. BD Bioscience).

Row | SMILES | tumour volume of human colorectal cancer [1] | Inhibition of TNFr (TNFr) | % Apoptosis PBLs (resting human PBLs; 10^−4 M) [%] | % Apoptosis PBLs (resting human PBLs; 10^−5 M) [%] | effect on PBLs (resting human PBLs; even at 10^−4 M) | Inhibition of IL4r (IL4r) | Inhibition of IL6r (IL6r) | melting point [°C] | concentration inducing apoptosis in haematological cancer cell lines [2] | IC50 at 72 h [3] [µM] | IC50 at 72 h [4] [µM] | IC50 (NCI-H460) [µM] | IC50 (HCT116) [µM] | IC50 (Malm-3M) [µM] | IC50 (HepG2) [µM] | IC50 (SF268) [µM] | IC50 (B16-F1) [µM] | IC50 (SW260) [µM] | reduction of blood serum levels of TNF-α in relation to vehicle group (TNF-α) [%] | reduction of blood serum levels of IL6 in relation to vehicle group (IL6) [%]
1 | O=c1[nH]cc(F)c(=O)[nH]1 [Compound 5-FU, 5-F uracil, reference compound] | not active in the tested experimental conditions | – | – | – | – | – | – | – | – | – | – | – | – | – | – | – | – | – | – | –
2 | C(CCCNCc1cccs1)=C(c1ccccc1)c1ccccc1.Cl [Compound 6, (5,5-diphenyl-pent-4-enyl)-thiophen-2-ylmethyl-amine hydrochloride] | – | Inhibition of TNFr total | 7.2 | 4.1 | hardly affect PBLs | Inhibition of IL4r total | Inhibition of IL6r total | 161 to 161.6 | ~10^−6 M | 24 | 27 | 17 | 8.1 | 13 | 5 to 50 | 29 | 16 | 13 | – | –
3 | C(CCCNCc1ccco1)=C(c1ccccc1)c1ccccc1.Cl [Compound 8, (5,5-diphenyl-pent-4-enyl)furan-2-ylmethylamine hydrochloride] | – | Inhibition of TNFr total | – | – | – | Inhibition of IL4r total | Inhibition of IL6r total | 139 to 141.3 | – | – | – | 5 to 50 | 5 to 50 | 16 | 5 to 50 | 5 to 50 | 14 | 5 to 50 | 37.7 | –
4 | C(CCCNCc1nc2ccccc2[nH]1)=C(c1ccccc1)c1ccccc1.Cl [Compound 11, (1H-benzoimidazol-2-ylmethyl)-(5,5-diphenyl-pent-4-enyl)amine hydrochloride] | – | Inhibition of TNFr total | – | – | – | Inhibition of IL4r total | Inhibition of IL6r total | 251 to 253.8 | – | – | – | – | – | – | – | – | – | – | 35.42 | –
5 | Cl.FC(F)(F)Oc1cccc(CNCCCCC=C(c2ccccc2)c2ccccc2)c1 [Compound 15, (6,6-diphenyl-hex-5-enyl)-(3-trifluoromethoxybenzyl)amine hydrochloride] | – | – | – | – | – | – | – | 96.6 to 98.5 | – | – | – | – | – | – | – | – | – | – | – | 64.58
